Square brackets hold non-standard residues; d marks the D form. Peptide text beside a SMILES is read from it. Cha = N[C@@H](CC1CCCCC1)C(=O)O; Aib = CC(C)(N)C(=O)O
How the values were obtained:
[1] = target: T1, Neuropeptide Y receptor type 2 (Homo sapiens, UniProt P49146); assay: Displacement of [125I]-PYY from human neuropeptide Y2 receptor expressed in CHO cell membranes incubated for 60 mins by TopCount based method
T1 sequence (P49146 whole entry): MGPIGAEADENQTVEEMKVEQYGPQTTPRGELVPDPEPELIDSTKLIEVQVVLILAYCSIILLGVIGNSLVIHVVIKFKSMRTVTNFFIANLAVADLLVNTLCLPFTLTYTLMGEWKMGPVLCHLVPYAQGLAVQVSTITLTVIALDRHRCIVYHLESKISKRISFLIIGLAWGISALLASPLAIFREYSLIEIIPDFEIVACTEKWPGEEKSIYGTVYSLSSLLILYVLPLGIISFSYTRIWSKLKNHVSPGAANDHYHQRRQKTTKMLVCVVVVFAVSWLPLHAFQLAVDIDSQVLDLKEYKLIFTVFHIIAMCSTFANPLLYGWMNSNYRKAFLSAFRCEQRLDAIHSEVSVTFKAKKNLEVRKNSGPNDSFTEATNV

[2] = target: T1, Neuropeptide Y receptor type 2; assay: Agonist activity at human neuropeptide Y2 receptor expressed in CHO cell membranes assessed as stimulation of [35S]GTPgammaS binding incubated for 120 mins by liquid scintillation counting method; assay type: functional
Mus musculus [3] = assay: Anorectic activity in C57BL/6J mouse assessed as inhibition of food intake at 0.3 mg/kg/day, sc for 3 days dosed as continuous administration by infusion using osmotic pump; assay type: functional; settings: 72 h
Mus musculus [4] = assay: Anorectic activity in C57BL/6J mouse assessed as inhibition of food intake at 1 mg/kg/day, sc for 3 days dosed as continuous administration by infusion using osmotic pump; assay type: functional; settings: 72 h
[5] = Cmax in C57BL/6J mouse at 1 mg/kg, sc measured during 5 mins to 24 hrs by LC/MS/MS method; assay type: ADME, organism-based; parameters: dose 1 mg/kg, route subcutaneous; settings: in vivo
[6] = Total clearance in C57BL/6J mouse at 1 mg/kg, iv measured during 5 mins to 24 hrs by LC/MS/MS method; assay type: ADME, organism-based; settings: in vivo
[7] = AUC (0 to 24 hrs) in C57BL/6J mouse at 1 mg/kg, iv measured during 5 mins to 24 hrs by LC/MS/MS method; assay type: ADME, organism-based; parameters: dose 1 mg/kg, time < 24 hr, route intravenous; settings: in vivo
Mus musculus [8] = assay: Anorectic activity in C57BL/6J mouse assessed as inhibition of food intake at 0.1 mg/kg/day, sc for 3 days dosed as continuous administration by infusion using osmotic pump; assay type: functional; settings: 72 h
Mus musculus [9] = assay: Anorectic activity in C57BL/6J mouse assessed as inhibition of food intake at 0.03 mg/kg/day, sc for 3 days dosed as continuous administration by infusion using osmotic pump; assay type: functional; settings: 72 h
[10] = MRT in C57BL/6J mouse at 1 mg/kg, iv measured during 5 mins to 24 hrs by LC/MS/MS method; assay type: ADME, organism-based; settings: in vivo
Mus musculus [11] = assay: Drug level in C57BL/6J mouse at 1 mg/kg, iv measured during 5 mins to 24 hrs by LC/MS/MS method; assay type: ADME, organism-based; settings: in vivo, read-out: Drug uptake
[12] = Tmax in C57BL/6J mouse at 1 mg/kg, sc measured during 5 mins to 24 hrs by LC/MS/MS method; assay type: ADME, organism-based; settings: in vivo
Mus musculus [13] = assay: Anorectic activity in C57BL/6J mouse assessed as inhibition of food intake at 0.3 mg/kg/day, sc dosed as […] and measured after 12 hrs; assay type: functional
[14] = Bioavailability in C57BL/6J mouse at 1 mg/kg, sc measured during 5 mins to 24 hrs by LC/MS/MS method; assay type: ADME, organism-based; settings: in vivo
[15] = MRT in C57BL/6J mouse at 1 mg/kg, sc measured during 5 mins to 24 hrs by LC/MS/MS method; assay type: ADME, organism-based; settings: in vivo
[16] = Volume of distribution at steady state in C57BL/6J mouse at 1 mg/kg, iv measured during 5 mins to 24 hrs by LC/MS/MS method; assay type: ADME, organism-based; settings: in vivo, read-out: Vdss
[17] = AUC (0 to 24 hrs) in C57BL/6J mouse at 1 mg/kg, sc measured during 5 mins to 24 hrs by LC/MS/MS method; assay type: ADME, organism-based; parameters: time < 24 hr, dose 1 mg/kg, route subcutaneous; settings: in vivo
Mus musculus [18] = assay: Anorectic activity in C57BL/6J mouse assessed as inhibition of food intake at 0.3 mg/kg/day, sc dosed as […] and measured after 24 hrs; assay type: functional

Compound | IC50 [1] [nM] | EC50 [2] [nM] | inhibition in vivo at 0.3 mg/kg/day (Mus musculus [3]) [%] | inhibition in vivo at 0.1 mg/kg/day (Mus musculus [8]) [%] | inhibition in vivo at 0.03 mg/kg/day (Mus musculus [9]) [%] | concentration (Mus musculus [11]) [nM] | inhibition in vivo at 0.3 mg/kg/day (Mus musculus [13]) [%] | inhibition in vivo at 0.3 mg/kg/day (Mus musculus [18]) [%] | other results
CC[C@](C)(NC(=O)[C@H]1CCCN1C(=O)[C@H](CO)NC(C)=O)C(=O)N[C@@H](Cc1cnc[nH]1)C(=O)N[C@@H](CC1CCCCC1)C(=O)N[C@@H](CC1CCCCC1)C(=O)N[C@@H](CC(N)=O)C(=O)N[C@@H](CC(C)C)C(=O)NC(C)(C)C(=O)N[C@H](C(=O)N[C@@H](CCCNC(=N)N)C(=O)N[C@@H](CCC(N)=O)C(=O)N[C@@H](CCCNC(=N)N)C(=O)N[C@@H](CC1CCCCC1)C(N)=O)[C@@H](C)O | 16 | 2 | 2 | – | – | – | – | – | –
CC(=O)N[C@@H](CO)C(=O)N1CCC[C@@H]1C(=O)N[C@@H](CCCNC(=N)N)C(=O)N[C@@H](Cc1cnc[nH]1)C(=O)N[C@@H](CC1CCCCC1)C(=O)N[C@@H](CC1CCCCC1)C(=O)N[C@@H](CC(N)=O)C(=O)N[C@@H](CC(C)C)C(=O)NC(C)(C)C(=O)N[C@H](C(=O)N[C@@H](CCCNC(=N)N)C(=O)N[C@@H](CCC(N)=O)C(=O)N[C@@H](CCCNC(=N)N)C(=O)N[C@@H](CC1CCCCC1)C(N)=O)[C@@H](C)O (Ac-S[dP]RH[Cha][Cha]NL[Aib]TRQR[Cha]-NH2) | – | – | – | – | – | – | – | – | inhibition in vivo at 1 mg/kg/day (Mus musculus [4]): 33%
CC[C@](C)(NC(=O)[C@H]1CCCN1C(=O)[C@H](CO)NC(C)=O)C(=O)N[C@@H](Cc1ccncc1)C(=O)N[C@@H](CC1CCCCC1)C(=O)NC(C)(C)C(=O)N[C@@H](CC(N)=O)C(=O)N[C@@H](CCCCN)C(=O)NC(C)(C)C(=O)N[C@H](C(=O)N[C@@H](CCCNC(=N)N)C(=O)N[C@@H](CCC(N)=O)C(=O)N[C@@H](CCCNC(=N)N)C(=O)N[C@@H](CC1CCCCC1)C(N)=O)[C@@H](C)O | 1.8 | 0.28 | – | 68 | 46 | 1270 | 22 | 7 | Cmax [5]: 227 nM; clearance [6]: 41 mL/min/kg; AUC(0-t) at 24 h [7]: 0.232 µM·h; MRT [10]: 12 min; Tmax [12]: 15 min; bioavailability [14]: 53.7%; MRT [15]: 22.2 min; Vd [16]: 0.5 L/kg; AUC(0-t) at 24 h [17]: 0.125 µM·h
CC(=O)N[C@@H](CO)C(=O)N1CCC[C@@H]1C(=O)N[C@@H](CCCNC(=N)N)C(=O)N[C@@H](Cc1ccncc1)C(=O)N[C@@H](CC1CCCCC1)C(=O)NC(C)(C)C(=O)N[C@@H](CC(N)=O)C(=O)N[C@@H](CCCCN)C(=O)NC(C)(C)C(=O)N[C@H](C(=O)N[C@@H](CCCNC(=N)N)C(=O)N[C@@H](CCC(N)=O)C(=O)N[C@@H](CCCNC(=N)N)C(=O)N[C@@H](CC1CCCCC1)C(N)=O)[C@@H](C)O | – | – | 112 | 80 | 38 | 1060 | 35 | 15 | –
CC[C@@](C)(NC(=O)[C@H](CCCCN)NC(=O)[C@H](CC(N)=O)NC(=O)C(C)(C)NC(=O)[C@H](CC1CCCCC1)NC(=O)[C@H](Cc1ccncc1)NC(=O)[C@H](CCCNC(=N)N)NC(=O)[C@H]1CCCN1C(=O)[C@H](CO)NC(C)=O)C(=O)N[C@H](C(=O)N[C@@H](CCCNC(=N)N)C(=O)N[C@@H](CCC(N)=O)C(=O)N[C@@H](CCCNC(=N)N)C(=O)N[C@@H](CC1CCCCC1)C(N)=O)[C@@H](C)O | 0.27 | 0.11 | – | 86 | 34 | – | – | – | –
CC[C@](C)(NC(=O)[C@H](CC1CCCCC1)NC(=O)[C@H](Cc1ccncc1)NC(=O)[C@H](CCCNC(=N)N)NC(=O)[C@H]1CCCN1C(=O)[C@H](CO)NC(C)=O)C(=O)N[C@@H](CC(N)=O)C(=O)N[C@@H](CCCCN)C(=O)NC(C)(C)C(=O)N[C@H](C(=O)N[C@@H](CCCNC(=N)N)C(=O)N[C@@H](CCC(N)=O)C(=O)N[C@@H](CCCNC(=N)N)C(=O)N[C@@H](CC1CCCCC1)C(N)=O)[C@@H](C)O | 0.16 | 0.14 | – | 85 | 36 | – | 41 | 23 | –

— ChEMBL document CHEMBL4177573 (Bioorg Med Chem, 2017)
